We go through one molecule from patent US7947854B2, “Bis-cationic compounds and use thereof” (The University of Sydney, priority 2003, dated 2011).

Structures are written as SMILES. Where two headings read alike, the source gives them in different places.

For assay [1], the system named is secreted phospholipase B (PLB activity). Briefly: Radiometric assay, secreted PLB activity. Type of assay: biochemical, Cryptococcus neoformans H99. As to conditions: for PLB, percentage inhibition of activity: Secretory Cryptococcal H99 Phospholipase. As for the experimental part:
Fungal isolates and media. […] Isolate H99 was kindly supplied by Dr. Gary Cox (Duke University Medical Center, Durham, N.C., USA), and subcultured onto Sabouraud dextrose agar (SDA) at 30° C.
Preparation of supernatants containing secreted phospholipase activities. Isolate H99 was grown to confluence on SDA in 16 cm diameter Petri dishes for 72 h at 30° C. in air. Cells scraped from 10-20 dishes were washed sequentially with isotonic saline and imidazole buffer (10 mM imidazole, 2 mM CaCl2, 2 mM Mg Cl2, 56 mM D-Glucose, made up in isotonic saline, pH 5.5), resuspended in a volume of this buffer of about 10% of the cell volume, and incubated for 24 h at 37° C. The cell-free supernatant was separated by centrifugation as previously described and stored at −70° C.
Radiometric assay method for phospholipases. Enzyme activities were measured as described previously in a final volume of 125 μL at 37° C. For the determination of secreted PLB activity, carrier dipalmitoyl phosphatidylcholine (DPPC, final concentration 800 μM) and 1,2-di[1-^14C] palmitoyl phosphatidylcholine (20,000 dpm) were dried under nitrogen and suspended in 125 mM imidazole acetate buffer (assay buffer, pH 4.0) by sonication using a Branson 450 sonifier. The reaction time was 22 min, using 1 μg total protein and PLB activity was determined by the rate of decrease of the radiolabelled PC substrate, with appearance of the label in free fatty acid. This assay also simultaneously allows for the determination of phospholipase A, C and D activities. These activities were measured by the appearance of radiolabel from PC in Lyso PC, diacylglycerol and phosphatidic acid, respectively.
All reactions were terminated by adding 0.5 mL of chloroform:methanol (2:1 v/v). The reaction products were extracted by the method as disclosed in Bligh, E. C. and W. J. Dyer. 1959 ‘A rapid method of total lipid extraction and purification.’ Can. J. Biochem. Physiol. 37:911-917, separated by TLC and quantified as previously described. In the case of PLC activity, the TLC plates were developed in petroleum ether (BP 60-80° C.): diethyl ether: acetic acid (90:15:1, v/v/v) instead of chloroform:methanol:water (65:25:4, v/v/v).
Preparation of inhibitors and use in assays. The following compounds were tested (for structures, see FIG. 2): compound 1, 1,12-bis(tributylphosphonium)dodecane dibromide (Fluka AG, Buchs, Switzerland); compound 2, 1,10-bis(tributylammonium)-decane dibromide; compound 3, 1,12-bis(tributylammonium)do-decane dibromide (both synthesised in-house); compound 4, 1,10-bis(trimethylammonium)decane dibromide [“decamethonium”] (Sigma, St. Louis Mo., USA). All compounds were prepared as stock solutions of 700 μM in assay buffer containing 5 mM EDTA, which was then diluted serially with buffer to obtain solutions of 70, 7, 0.7 and 0.07 μM. In each assay, 45 μL of these solutions was used, and the final volume of 125 μL was made up of substrate, enzyme and buffer. The radiometric assay was carried out as above. Inhibition was calculated as the percent of substrates (DPPC or Lyso-PC) remaining in the case of PLB and LPL activities, or of DPPC produced, in the case of the LPTA activity. The amounts converted, or produced, in the inhibitor-free control were normalised to 100%, and the inhibition calculated against it. All assays were done in triplicate.
Under these conditions only PLB, LPL and LPTA activities (both secreted and cell-associated) were measured. Initially, compounds deemed to be potential inhibitors were assayed at 25 and 250 μM. Those showing some inhibition were then also assayed at 2.5 and 0.25 μM.

For assay [2], the target named is T1, Porcine pancreatic phospholipase A2 (Sus scrofa, UniProt P00592).
T1 construct: purchased Sigma, St. Louis MO, USA
Briefly: Pancreatic phospholipase assay. Type of assay: biochemical. Particulars: read-out: ppPLA2, percentage inhibition of activity. On the procedure:
Pancreatic phospholipase assay. Porcine pancreatic phospholipase A2 suspension in 3.2M ammonium sulfate (2.9 mg protein/mL, Sigma St.Louis Mo., USA) was used. One part of well mixed enzyme suspension was added to 4 parts of buffer (10 mM Tris/HCl, pH 8.2; 10 mM CaCl2. Activity and inhibition by test compounds was then measured by the radiometric method described in Example 2 for fungal PLB activity. However, 25 μL enzyme solution was used, and the reaction time was 1 hour. These conditions result in ˜60% substrate conversion in the inhibitor-free control.

Assay [3] concerns Candida albicans ATCC 10231. Kind of assay: Antifungal susceptibility testing, microdilution MIC. Type of assay: cell-based. As to conditions: Candida albicans, ATCC10231. On the procedure: (§1) Antifungal susceptibility testing. The antifingal activity of the compounds was measured by a standard microdilution method. […] The fungal strains tested included Cryptococcus neoformans H99, Cryptococcus neoformans ATCC 90112 and Candida albicans ATCC 10231. All tests were performed in duplicate.
(§2) A range of cationic compounds were assayed for antifungal activity in a standardised serial dilution sensitivity test against C. neoformans ([…]) and C. Albicans (ATCC 10231).
(In general: In broth dilution the organism is exposed to a series of concentrations in liquid medium.)

Assay [4] has as its system Cryptococcus neoformans ATCC 90112. The assay is described as above. Type of assay: cell-based. As to conditions: Cryptococcus neoformans, ATCC90112. As for the experimental part:
as §1, §2

T1 sequence (P00592 23-146): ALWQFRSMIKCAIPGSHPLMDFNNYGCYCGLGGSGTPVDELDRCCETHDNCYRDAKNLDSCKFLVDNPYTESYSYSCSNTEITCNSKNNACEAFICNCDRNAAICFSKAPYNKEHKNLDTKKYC

The term inhibition denotes the relative decrease from the control value, in per cent. Broadly, the MIC is the smallest concentration in the dilution series that meets the test's criterion for growth inhibition. For the molecule `CCCC[N+](CCCC)(CCCC)CCCCCCCCCC[N+](CCCC)(CCCC)CCCC` [Compound 2, 1,10-bis(tributylammonium)-decane dibromide], the “PLB assay (% inhibition)” value is on record as 0% in assay [1] (0.25 μM), 30% in assay [1] (2.5 μM), 80% in assay [1] (25 μM) and 90% in assay [1] (250 μM). Further, the “PLB, percentage inhibition of activity” value in assay [1] (0.25 μM) was found to be 0%; in assay [1] (2.5 μM), 30%; in assay [1] (25 μM), 80%; in assay [1] (250 μM), 90%. Besides, the inhibition at 0.25 µM in assay [2] (0.25 μM) turned out to be 0%. The inhibition at 2.5 µM in assay [2] (2.5 μM) was 0%. In assay [2] (25 μM), the inhibition at 25 µM came to 25%. Moreover, in assay [2] (250 μM), the inhibition at 250 µM came to 65%. The minimum inhibitory concentration (MIC) in assay [3] (Table 6, no visible growth after 48 h at 35° C., read-out: MIC C. albicans ATCC 10231) amounted to 88 µM; in assay [3] (Table 7, read-out: MIC (μM) C. alb. (10231)), 88 µM; in assay [4] (Table 6, no visible growth after 72 h at 35° C., read-out: MIC C. neof. ATCC 90112), 11 µM; in assay [4] (Table 7, read-out: MIC (μM) Crypto. (ATCC 90112)), 11 µM.
